According to US20240025903A1, “Bicyclic Compounds and Uses Thereof for the Treatment of Diseases” (Athira Pharma, Inc., priority 2020, published 2024):

Legend:
[1] = Parallel artificial membrane permeability assay (PAMPA); assay type: in vitro ADME; settings: PBS, room temperature
Protocol: Bioavailable drugs must permeate the cellular membranes of the lining of the digestive tract. To estimate the penetrability of exemplary compounds, the in vitro parallel artificial membrane permeability assay (PAMPA) was utilized.
Test compounds must have a standard curve in the final read plate to determine partitioned concentration of each drug. A 6-point standard curve was prepared for each compound from 0 to 200 μM in phosphate-buffered saline (PBS).
Test compound solution (300 μL in PBS) was added to the donor (bottom) well of the PAMPA plate in 5 replicates and PBS vehicle (200 μL) was added to the acceptor (top) wells of appropriate wells to match the loading of the donor plate. The bottom and top of the PAMPA plates were then sandwiched together. The PAMPA plates were then incubated at room temperature for 5 hours. After incubation, 150 μL of donor solution was added to a UV compatible plate containing the corresponding standard curve. 150 μL of acceptor well solution was added adjacent to the corresponding standard curve and donor well samples for that compound. The plate was then read using a UV plate reader.
Permeability and membrane retention were then calculated based on the following formulas:
Permeability (cm/s): (Pe)(cm/s)={−ln [1−CA(t)/Ceq]}/[A*(1/VD+1/VA)*t] (equation 1) • where: • A=filter area (0.3 cm^2); • VD=donor well volume (0.3 mL); • VA=acceptor well volume (0.2 mL); • t=incubation time (seconds); • CA(t)=compound concentration in acceptor well at time t; • CD(t)=compound concentration in donor well at time t; and • Ceq=[CD(t)*VD+CA(t)*VA]/(VD+VA).
Membrane Retention (R)=1−[CD(t)*VD+CA(t)*VA]/(C0*VD) (equation 2) • where: • CD(t), VD, CA(t), and VA are as defined for equation 1, and • C0=initial concentration in donor well (200 uM).

HGF/MET system = target: T1, HGF/MET system (Homo sapiens, UniProt P08581+P14210); assay: Phospho-MET ELISA; assay type: cell-based; parameters: key: − indicates that the compound failed to significantly augment MET phosphorylation; + indicates maximum potency at or above 100 nM; ++ indicates maximum potency at or above 10 nM; +++ indicates maximum potency at or above 1 nM; ++++ indicates maximum potency at or above 0.1 nM; settings: HEK293 cells, 1 ng/mL recombinant HGF, 15 minutes, pMET ELISA
T1 construct: HEK293 cells were prepared by passage into 6-well multi-plates; endogenous in cells; host or cells: HEK293
Protocol: Compounds were screened for potency towards the HGF/MET system using phospho-MET (pMET) ELISA kits (Cell Signaling). pMET levels were detected in samples having low (1 ng/mL) and high (10 ng/mL) concentrations of HGF.
HEK293 cells were prepared by passage into 6-well multi-plates and grown at 37° C. at 5% CO2 in DMEM+10% FBS until approximately 90% confluent. Cells were then starved for at least 8 hours in serum-free growth media.
Exemplary compounds were prepared in DMEM+0.1% FBS, diluted and added to treatment media with 1 ng/mL recombinant HGF protein (R&D Systems). Cells were incubated in triplicate at 37° C. and 5% CO2 for 15 minutes. Samples were then treated with 180 μL ice-cold RIPA (radioimmunoprecipitation assay) buffer and cells were lysed on ice for 15 minutes. Lysates were cleared by centrifugation at 16,000-g for 15 minutes and the supernatant was retained. Samples were normalized using a BCA assay of lysates to determine protein concentrations across the samples.
Between 50 and 100 μg total protein lysate was loaded into ELISA wells in pMET Sandwich ELISA kit (Cell Signaling Catalog #7227C), ensuring equal protein load in each well. The ELISA was processed according to manufacturer's instructions. After color developed, absorbance was read on an optical plate reader at 450 nm.
Potency measurements were determined using peak efficacy by scaling test compound dose treatments along a scale of 1-10 between 1 ng/mL and 10 ng/mL HGF doses according to the following formula: […]
where y is the normalized data-point, x is the raw data point, A is the mean HGF at 1 ng/mL, and B is the mean HGF at 10 ng/mL.

[2] = Turbidimetric solubility assay; assay type: physicochemical; settings: aqueous buffer, kinetic from dmso stock, PBS, 37° C., absorbance 620 nm
Protocol: Aqueous solubility is a critical drug property that helps to predict bioavailability. Generally, compounds with aqueous solubility <100 μg/ml are poor drugs.
To assess a compound's solubility by turbidity, test compounds were first dissolved in organic solvent (DMSO) at a concentration of 10 mM. This compound solution was then diluted in aqueous solvent (PBS) in a dilution series from […] in a 96-well assay plate. Solutions were incubated at 37° C. for 2 hours.
In wells with test compounds over their solubility limit, the compound will precipitate, effectively blocking the passage of light and thus increasing the absorbance signal of UV light at a wavelength of 620 nm. Compounds were considered insoluble at a tested concentration if turbidity raises the absorbance more than 10% above control reads.

HepG2 cells = assay: Cytotoxicity assay (LDH release); assay type: cell-based; settings: 48 hours, 0.1 to 100 μM
Protocol: This experiment was designed to obtain a preliminary assessment of cytotoxicity.
HepG2 cells were plated in 96-well cell culture plates and allowed to attach overnight at 37° C., 5% CO2 in EMEM+10% FBS. Treatments were made in complete media (EMEM+10% FBS) and included a dilution series of test compounds from 0.1 to 100 μM. Known cytotoxin cerivastatin was used as a positive assay control and prepared at a final concentration of 0.5 μM.
Growth media was replaced with treatment media (EMEM+10% FBS containing test compound dissolved in DMSO) and cells were incubated with test compounds for 48 hours. At the end of the incubation period, supernatant media from each well was transferred to a new plate and LDH assay working solution was added. LDH assay solution undergoes a colorimetric reaction in proportion to the amount of lactate dehydrogenase (an intracellular protein that was only found in the media in the presence of lysed cells) in the media. Color reaction was quantified by measurement of absorbance at a wavelength of 490 nm.
The signal range of the assay was determined by no manipulation in a negative control treatment and full lysis of all cells in a lysis control sample. Compounds that increase the level of cytotoxicity more than 20% above negative control samples were considered cytotoxic in this assay.

MDCK cells = assay: Cell scattering behavior assay; assay type: cell-based; parameters: key: − indicates that the compound failed to significantly promote cell scattering behavior; + indicates maximum potency at or above 100 nM; ++ indicates maximum potency at or above 10 nM; +++ indicates maximum potency at or above 1 nM; ++++ indicates maximum potency at or above 0.1 nM; settings: 5 ng/mL HGF, 24 hours, normalized particle count vs HGF alone
Protocol: MDCK cells were grown under normal conditions and observed to spontaneously form tight colonies as they proliferate. MDCK cells respond to HGF treatment by moving away from each other (scattering), which is quantified to assess the amount of HGF/MET activation in the cell population. In this experiment, MDCK cells were plated in a 96-well format, treated with HGF and exemplary compounds, fluorescently stained, imaged in large fields, and scattering behavior was quantified. Quantification was determined by analyzing the number of continuous groups of cells compared to the total stained area imaged (normalized particle counts).
MDCK cells were plated at low density in black-walled imaging plates and allowed to attach overnight at 37° C. and 5% CO2 in DMEM+10% FBS. Cells were then starved to 2 hours in DMEM without FBS (“starve media”). Samples containing exemplary compounds were prepared in DMEM without FBS and included 5 ng/mL HGF protein (“treatment media”). A control curve was also prepared for each plate using HGF concentrations of 0, 5, 10, and 20 ng/mL. Starve media was replaced with treatment media and cells were incubated for 24 hours at 37° C. and 5% CO2.
After incubation, cells were fixed by replacing treatment media with cold ethanol and incubating for 20 minutes at 4° C. Cells were then rehydrated by washing with PBS and then with stain solution (fluorescent wheat germ agglutinin; WGA488 at 20 μg/mL in PBS). Cells were incubated with stain solution 30 minutes at room temperature after which stain solution was replaced with fresh PBS.
Fields of cells were imaged using an iCyte high content imager in the green wavelength. Images were converted to binary and analyzed for particle size and particle count. For the purpose of analysis, an individual cell touching no other cells or separated colonies of cells were identified as particles, and particle counts were normalized by the total signal area to account for differences in cell number. […] Compound potency was assessed by statistical increase in normalized particle count compared to HGF treatment alone.

T1 sequence (P08581 308-1390 limits assumed): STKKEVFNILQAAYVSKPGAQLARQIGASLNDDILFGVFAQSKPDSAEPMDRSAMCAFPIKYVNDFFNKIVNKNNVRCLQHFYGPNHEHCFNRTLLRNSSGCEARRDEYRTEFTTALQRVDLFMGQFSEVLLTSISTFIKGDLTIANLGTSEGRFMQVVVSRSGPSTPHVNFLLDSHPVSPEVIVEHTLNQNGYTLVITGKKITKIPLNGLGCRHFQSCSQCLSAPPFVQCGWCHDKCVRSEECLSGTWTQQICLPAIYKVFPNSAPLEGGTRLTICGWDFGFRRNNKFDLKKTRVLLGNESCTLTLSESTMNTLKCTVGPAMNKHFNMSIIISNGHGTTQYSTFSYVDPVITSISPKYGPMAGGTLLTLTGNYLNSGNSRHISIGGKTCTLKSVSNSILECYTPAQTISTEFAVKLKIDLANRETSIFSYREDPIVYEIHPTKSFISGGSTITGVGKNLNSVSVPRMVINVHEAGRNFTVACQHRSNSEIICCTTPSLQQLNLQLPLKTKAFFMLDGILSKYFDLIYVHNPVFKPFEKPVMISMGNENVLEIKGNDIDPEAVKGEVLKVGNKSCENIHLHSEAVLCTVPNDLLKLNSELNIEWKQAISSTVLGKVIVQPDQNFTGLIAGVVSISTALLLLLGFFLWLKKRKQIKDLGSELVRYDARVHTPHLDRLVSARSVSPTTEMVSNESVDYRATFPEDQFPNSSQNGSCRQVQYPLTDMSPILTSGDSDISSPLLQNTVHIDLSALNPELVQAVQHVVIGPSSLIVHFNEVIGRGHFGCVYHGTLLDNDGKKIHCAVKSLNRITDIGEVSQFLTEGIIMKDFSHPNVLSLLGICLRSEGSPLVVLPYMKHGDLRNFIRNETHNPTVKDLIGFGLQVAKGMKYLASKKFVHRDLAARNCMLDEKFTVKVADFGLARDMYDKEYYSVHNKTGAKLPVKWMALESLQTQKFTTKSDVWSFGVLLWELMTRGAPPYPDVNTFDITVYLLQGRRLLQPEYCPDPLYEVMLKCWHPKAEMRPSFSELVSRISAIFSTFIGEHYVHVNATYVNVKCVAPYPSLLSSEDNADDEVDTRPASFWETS
T1 sequence (P14210 32-494 limits assumed): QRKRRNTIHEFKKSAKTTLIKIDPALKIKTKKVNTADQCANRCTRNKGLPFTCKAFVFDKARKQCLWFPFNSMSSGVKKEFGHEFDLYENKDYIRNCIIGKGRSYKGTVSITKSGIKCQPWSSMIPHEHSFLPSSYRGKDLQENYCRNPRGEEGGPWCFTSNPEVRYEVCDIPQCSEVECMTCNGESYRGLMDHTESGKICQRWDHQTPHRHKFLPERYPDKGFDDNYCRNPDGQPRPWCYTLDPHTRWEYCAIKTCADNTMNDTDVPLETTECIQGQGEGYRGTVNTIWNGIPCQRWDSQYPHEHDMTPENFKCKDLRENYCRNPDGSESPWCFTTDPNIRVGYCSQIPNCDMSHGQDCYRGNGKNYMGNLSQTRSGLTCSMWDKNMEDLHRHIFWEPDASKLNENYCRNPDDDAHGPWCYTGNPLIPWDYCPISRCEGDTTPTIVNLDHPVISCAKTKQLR

SMILES	Papp at 5 h, 200 µM [1] [×10⁻⁶ cm/s]	Potency (augmentation of MET phosphorylation) (HGF/MET system)	solubility at 2 h [2] [µM]	Cytotoxicity (HepG2 cells)	Potency (cell scattering) (MDCK cells)	Permeability ([1]; 5 hours)
CC1C(=O)N(CCC2CCC2)CC2N(Cc3ccc(C(F)(F)F)c(Cl)c3)CCC(=O)N12 (stereo not drawn) [Compound 51]	< 2	+++ (+++ indicates maximum potency at or above 1 nM)	> 100	+++ (+++ indicates non-toxic at 10 μM)	+++ (+++ indicates maximum potency at or above 1 nM)	
CCC(C)CN1CC2N(Cc3ccc(OC(F)F)cc3)CCC(=O)N2C(CC(=O)O)C1=O (stereo not drawn) [Compound 49, 2-(1-(4-(difluoromethoxy)benzyl)-8-(2-methylbutyl)-4,7-dioxooctahydro-2H-pyrazino[1,2-a]pyrimidin-6-yl)acetic acid]	> 2	++++ (++++ indicates maximum potency at or above 0.1 nM)	> 300	++++ (++++ indicates non-toxic at 100 μM)	++++ (++++ indicates maximum potency at or above 0.1 nM)	
CCC(C)N1CC2N(Cc3ccc(O)cc3)CCC(=O)N2CC1=O (stereo not drawn) [Compound 9]	> 2	−	> 300	++++ (++++ indicates non-toxic at 100 μM)	−	
CCC(C)CN1CC2N(C(=O)c3ccc(O)cc3)CCC(=O)N2[C@@H](C)C1=O (stereo partly drawn) [Compound 3a]		−	> 300		−	+++ (+++ indicates permeability below 2 × 10^−6 cm/s)
CCC(C)CN1CC2N(C(=O)c3ccc(O)nc3)CCC(=O)N2[C@@H](C)C1=O (stereo partly drawn) [Compound 4a]	> 10	+ (+ indicates maximum potency at or above 100 nM)	> 300	++++ (++++ indicates non-toxic at 100 μM)	+ (+ indicates maximum potency at or above 100 nM)	
CC1C(=O)N(CCC2CCCC2)CC2N(Cc3ccc(C(F)(F)F)c(Cl)c3)CCC(=O)N12 (stereo not drawn) [Compound 54]	< 2	−	> 30	+++ (+++ indicates non-toxic at 10 μM)	−	
CCC(C)CN1CC2N(Cc3ccc(OC(F)F)cc3)CCC(=O)N2C(CC(C)C)C1=O (stereo not drawn) [Compound 53, 1-(4-(difluoromethoxy)benzyl)-6-isobutyl-8-(2-methylbutyl)hexahydro-4H-pyrazino[1,2-a]pyrimidine-4,7(6H)-dione]	< 2	++ (++ indicates maximum potency at or above 10 nM)	> 100	+++ (+++ indicates non-toxic at 10 μM)	+++ (+++ indicates maximum potency at or above 1 nM)	
CCCCN1CC2N(Cc3ccc(OC(F)F)cc3)CCC(=O)N2C(C)C1=O (stereo not drawn) [Compound 41]		−	> 300		−	
CCC(C)CN1CC2N(Cc3ccc(C(F)(F)F)c(Cl)c3)CCC(=O)N2C(C)C1=O (stereo not drawn) [Compound 43]		−	> 100		−	
CCC(C)CN1CC2N(Cc3ccc(F)cc3)CCC(=O)N2C(C)C1=O (stereo not drawn) [Compound 42]	> 2	++++ (++++ indicates maximum potency at or above 0.1 nM)	> 300	++++ (++++ indicates non-toxic at 100 μM)	+++ (+++ indicates maximum potency at or above 1 nM)	
CC1C(=O)N(CCc2cccs2)CC2N(C(=O)c3ccc(OC(F)F)cc3)CCC(=O)N12 (stereo not drawn) [Compound 26]		−	> 300		−	
